The text below walks through data of article PMC4138078, “Chemically Modified Peptide Scaffolds Target the CFTR-Associated Ligand PDZ Domain” (PLoS ONE, 2014).

Holding throughout (type): binding
In test [1] the target is T1, CAL PDZ domain (CALP) (Homo sapiens, UniProt Q9HD26).
T1 construct: made in house
In words: Fluorescence polarization (FP) competition/displacement assay. The note with it: for binding affinity stronger than iCAL36: FP displacement. As to the method:
FP competition experiments were performed as previously described, [17].
For illustrative purposes, a logistic curve-fit is shown, but K I values and fractional reporter occupancy values were determined by least-squares fitting of the complete binding equation.
Background: Fluorescence polarisation rises when a labelled molecule tumbles more slowly, as on binding a larger partner.

Test [2] has as its target T1, CAL PDZ domain (CALP). The experiment in a line: Isothermal titration calorimetry (ITC). To be noted: ITC value relative to FP value. As for the experimental part: ITC experiments were performed and analyzed in a manner similar to that described previously, [20]. Titrations were performed with a Nano ITC 2G (TA Instruments). In brief, for a typical titration, 100–320 µM CALP was loaded into the 943 µL sample cell, and 2–3 mM peptide placed in a 250 µL injector syringe. For [drawing 8] , titrations were performed with polyhistidine-tagged CALP. Peptide concentrations were adjusted based on the amount of protein, so the final ratio of peptide to protein ranged between 3∶1–4∶1. Each titration included an initial 1 or 2 µL injection followed by 5 or 10 µL injections performed at 180 s intervals, for a total of 25–50 injections. The stirring speed was 250 rpm, and experimental temperature was 25°C. Thermograms were analyzed using NanoAnalyze software (TA Instruments). Details are described in ref. [21].
(In general: In ITC the heat of successive injections is recorded.)

Test [3] deals with T1, CAL PDZ domain (CALP). In words: Surface plasmon resonance (SPR), equilibrium analysis. To be noted: SPR value relative to FP value. As to the method:
SPR experiments were performed on a Biacore X100 Plus (GE Healthcare Life Sciences), with CALP covalently immobilized on a CM5 sensor chip. […] Sensorgrams were analyzed using the Biacore evaluation software. Experiments were performed in duplicate or triplicate (n≥2). A detailed description is provided in ref. [21].
A general note: In SPR one partner is held on a chip, and binding of the other changes the refractive index at the surface.

Structures can show the parent of a compound that is named as a salt. Peptide text beside a SMILES is read from it. * marks the point of attachment. Benzoyl(4-Br) = O=C(c1ccc(Br)cc1)*; Benzoyl(4-F) = O=C(c1ccc(F)cc1)*; Tfa = O=C(C(F)(F)F)*

For the compound `CC[C@H](C)[C@H](NC(=O)[C@@H](NC(=O)[C@H](CO)NC(=O)[C@@H](NC(=O)[C@@H]1CCCN1C(=O)[C@H](Cc1c[nH]c2ccccc12)NC(=O)[C@H](CCCNC(=N)N)NC(=O)[C@H](CO)NC(=O)[C@H](CC(N)=O)NC(=O)[C@H](C)NC(C)=O)[C@@H](C)O)[C@@H](C)CC)C(=O)O` [Ac-iCAL36], the “change in binding affinity compared to iCAL36” value at CAL PDZ domain (CALP) [1] (head-to-head FP displacement assays) is recorded as “no significant change”.
Take `CC[C@H](C)[C@H](NC(=O)[C@@H](NC(=O)[C@H](CO)NC(=O)[C@@H](NC(=O)[C@H](CCCCNC(C)=O)NC(=O)[C@H](Cc1c[nH]c2ccccc12)NC(=O)[C@H](CCCNC(=N)N)NC(=O)[C@H](CO)NC(=O)[C@H](CC(N)=O)NC(=O)[C@H](C)N)[C@@H](C)O)[C@@H](C)CC)C(=O)O` [Peptide C00003]: the “fold-deviation of K D from ITC from the value obtained by FP” value (“fold-deviation of K D from ITC” below) on CAL PDZ domain (CALP) [2] was “(1.5) fold”. Also, on CAL PDZ domain (CALP) [3], the “fold-deviation of K D from SPR from the value obtained by FP” value (“fold-deviation of K D from SPR” below) is recorded as “(2.0) fold”.
On to `CC[C@H](C)[C@H](NC(=O)[C@@H](NC(=O)[C@H](CO)NC(=O)[C@@H](NC(=O)[C@@H]1CCCN1C(=O)[C@H](CCCCNC(C)=O)NC(=O)[C@H](CCCNC(=N)N)NC(=O)[C@H](CO)NC(=O)[C@H](CC(N)=O)NC(=O)[C@H](C)N)[C@@H](C)O)[C@@H](C)CC)C(=O)O` [Peptide C00004], for which, at CAL PDZ domain (CALP) [3], the “fold-deviation of K D from SPR” value is reported as “(0.5) fold”.
Turning to `CC[C@H](C)[C@H](NC(=O)[C@H](CCCCNC(=O)c1ccc(Br)cc1)NC(=O)[C@H](CO)NC(=O)[C@@H](NC(=O)[C@@H]1CCCN1C(=O)[C@H](Cc1c[nH]c2ccccc12)NC(=O)[C@H](CCCNC(=N)N)NC(=O)[C@H](CO)NC(=O)[C@H](CC(N)=O)NC(=O)[C@H](C)N)[C@@H](C)O)C(=O)O` [Peptide C00005] (H-ANSRWPTSK(Benzoyl(4-Br))I-OH), on CAL PDZ domain (CALP) [2], the “fold-deviation of K D from ITC” value was “(1.9) fold”. Also, the “fold-deviation of K D from SPR” value at CAL PDZ domain (CALP) [3] was “(1.8) fold”. Besides, the “binding affinity stronger than iCAL36” value at CAL PDZ domain (CALP) [1] is recorded as about 2 fold.
Take `CC[C@H](C)[C@H](NC(=O)[C@H](CCCCNC(=O)c1ccc(F)cc1)NC(=O)[C@H](CO)NC(=O)[C@@H](NC(=O)[C@@H]1CCCN1C(=O)[C@H](Cc1c[nH]c2ccccc12)NC(=O)[C@H](CCCNC(=N)N)NC(=O)[C@H](CO)NC(=O)[C@H](CC(N)=O)NC(=O)[C@H](C)N)[C@@H](C)O)C(=O)O` [Peptide C00006] (H-ANSRWPTSK(Benzoyl(4-F))I-OH): the “fold-deviation of K D from ITC” value on CAL PDZ domain (CALP) [2] is reported as “(1.1) fold”. Moreover, the “fold-deviation of K D from SPR” value on CAL PDZ domain (CALP) [3] is reported as “(2.4) fold”. In addition, the “binding affinity stronger than iCAL36” value at CAL PDZ domain (CALP) [1] is reported as about 2 fold.
Regarding `CC[C@H](C)[C@H](NC(=O)[C@H](CCCCNC(=O)C(F)(F)F)NC(=O)[C@H](CO)NC(=O)[C@@H](NC(=O)[C@@H]1CCCN1C(=O)[C@H](Cc1c[nH]c2ccccc12)NC(=O)[C@H](CCCNC(=N)N)NC(=O)[C@H](CO)NC(=O)[C@H](CC(N)=O)NC(=O)[C@H](C)N)[C@@H](C)O)C(=O)O` [Peptide C00007] (H-ANSRWPTSK(Tfa)I-OH), the “fold-deviation of K D from ITC” value on CAL PDZ domain (CALP) [2] is “(2.4) fold”. For the same compound, on CAL PDZ domain (CALP) [3], the “fold-deviation of K D from SPR” value is given as “(1.6) fold”.
On to H-ANSRWPK(Ac)SII-OH [Peptide C00002], for which, on CAL PDZ domain (CALP) [2], the “fold-deviation of K D from ITC” value is reported as “(0.5) fold”. In addition, the “fold-deviation of K D from SPR” value on CAL PDZ domain (CALP) [3] is reported as “(0.7) fold”.
The matching figures for H-ANSRWPTSK(Ac)I-OH [Peptide C00001]: “(1.8) fold” and “(2.7) fold”.
